Experiments:
Format in all cases: cell-based
[1] = system: Aspergillus flavus; assay: Agar plate disc-diffusion antifungal test, Aspergillus flavus; conditions: Sabouraud's dextrose agar, 37° C., 72 h, DMSO control zone subtracted
Description: (§1) The agar plate disc-diffusion method was applied. Sterilized filter papers (6 mm in diameter) were wetted with 10 μL of a solution of 2-ethoxy[4,3:6,2-terpyridine]-3-carbonitrile (4) or 2-methoxy[4,3:6,2-terpyridine]-3-carbonitrile (5) to be tested, containing […], and the discs were allowed to air dry. The discs were then placed onto the surface of agar plates (nutrient agar for bacteria and Sabouraud's dextrose agar for fungi) seeded with the test organism. Each plate contained 15 mL of the agar medium, previously seeded with 0.2 mL of the broth culture of each organism pre-grown for 18 hours. The plates were incubated at 37° C. for 48 h, and 72 h for fungi. The inhibition zones were measured in mm. Discs impregnated with DMSO were used as a control, and its inhibition zone was subtracted from the tested compound actual inhibition zone.
(§2) The results of the antimicrobial testing can be observed in Tables 1 and 2, below, using ciprofloxacin as a reference.

[2] = system: Staphylococcus aureus; assay: Agar plate disc-diffusion antibacterial test, Staphylococcus aureus; conditions: nutrient agar, 37° C., 48 h, DMSO control zone subtracted
Description: as §1, §2

[3] = system: Escherichia coli; assay: Agar plate disc-diffusion antibacterial test, Escherichia coli; conditions: nutrient agar, 37° C., 48 h, DMSO control zone subtracted
Description: as §1, §2

[4] = system: Pseudomonas aeruginosa; assay: Agar plate disc-diffusion antibacterial test, Pseudomonas aeruginosa; conditions: nutrient agar, 37° C., 48 h, DMSO control zone subtracted
Description: as §1, §2

[5] = system: Chrysosporium keratinophilum; assay: Agar plate disc-diffusion antifungal test, Chrysosporium keratinophilum; conditions: Sabouraud's dextrose agar, 37° C., 72 h, DMSO control zone subtracted
Description: as §1, §2

[6] = system: Bacillus cereus; assay: Agar plate disc-diffusion antibacterial test, Bacillus cereus; conditions: nutrient agar, 37° C., 48 h, DMSO control zone subtracted
Description: as §1, §2

[7] = A = concentration of comp. = 10,000 μL
[8] = B = concentration of comp. = 30.000 μL
[9] = C = concentration of comp. = 50,000 μL

SMILES | inhibition zone [1, 7] [mm] | inhibition zone [1, 8] [mm] | inhibition zone [1, 9] [mm] | inhibition zone [2, 7] [mm] | inhibition zone [2, 8] [mm] | inhibition zone [2, 9] [mm] | inhibition zone [3, 7] [mm] | inhibition zone [3, 8] [mm] | inhibition zone [3, 9] [mm] | inhibition zone [4, 7] [mm] | inhibition zone [4, 8] [mm] | inhibition zone [4, 9] [mm] | inhibition zone [5, 7] [mm] | inhibition zone [5, 8] [mm] | inhibition zone [5, 9] [mm] | inhibition zone [6, 7] [mm] | inhibition zone [6, 8] [mm] | inhibition zone [6, 9] [mm]
O=C(O)c1cn(C2CC2)c2cc(N3CCNCC3)c(F)cc2c1=O [Cip., ciprofloxacin, reference compound] | 29 | 30 | 42 | 43 | 44 | 53 | 30 | 39 | 60 | 29 | 30 | 53 | 29 | 30 | 53 | 29 | 30 | 42
CCOc1nc(-c2ccccn2)cc(-c2cccnc2)c1C#N [Compound 4, 2-ethoxy[4,3:6,2-terpyridine]-3-carbonitrile] | 20 | 23 | 35 | 16 | 20 | 28 | 28 | 37 | 51 | 24 | 29 | 46 | 22 | 24 | 35 | 25 | 27 | 40
COc1nc(-c2ccccn2)cc(-c2cccnc2)c1C#N [Compound 5, 2-methoxy[4,3:6,2-terpyridine]-3-carbonitrile] | 21 | 26 | 31 | 18 | 22 | 31 | 29 | 38 | 54 | 25 | 29 | 47 | 25 | 27 | 47 | 26 | 28 | 41

— patent US11912662B1, “2-alkoxy[4,3:6,2-terpyridine]-3-carbonitrile as antimicrobial compounds” (KING FAISAL UNIVERSITY, priority 2023, dated 2024)
